Earlier results on two compounds are cited in patent US20240108697A1, “ANTIMICROBIAL COMPOSITIONS” (Matoke Holdings Limited, priority 2020, published 2024).

The conditions of data set [1]: at 20° C. and 1 atm.
Data set [2] deals with Human Fibroblast Cell Migration. Particulars: in the presence of 30 mM glucose.

For the compound `O=C(CO)[C@@H](O)[C@H](O)[C@H](O)CO` [Fructose], the solubility result in data set [1] is listed as “about 375 g/100 g water”.

For the compound `O=C[C@H](O)[C@@H](O)[C@H](O)[C@H](O)CO` [Glucose], the solubility in data set [1] is on record as 90 g/100 g water. Moreover, in data set [2], the “mobilisation of fibroblasts in a cell culture system” value is “poor mobilisations of fibroblasts”.
